From US20250367348A1, “3D PRINTING OF 3-LAYERED RETINA AND CHOROID TISSUE” (Ramot at Tel-Aviv University Ltd., priority 2023, published 2025)

Legend:
[1] = tested on: engineered RPE layer (blood vessel-RPE construct); assay: Calcium imaging (Fluo-4-AM) after ATP addition; type: cell-based; settings: 100 μM ATP added to medium; followed by slow decrease to baseline
Description: Calcium imaging: Fluo-4-AM was prepared by adding 45 μL DMSO and 45 μL Pluronic-DMSO to a 50 μg vial of Fluo-4-AM.Fluo-4-AM was diluted with HBSS in a ratio of 1:50 and the cells were incubated for 1 hour in 37° C. The cells were washed for 30 minutes in HBSS in 37° C. The sample was placed in an inverted microscope on a heating plate adjusted to 37° C. Fluo-4-AM emission is at 506 nm and excitation is at 494 nm. Images were acquired at a rate of 3.15 Hz. 10 seconds After starting the recording 100 μM ATP were added to the medium. The data was analyzed using ImageJ. TEM: TEM Samples were fixated in 2.5% Glutaraldehyde in PBS over night at 4° C. After several washes in PBS, the samples were post fixed in 1% OsO4 in PBS for 2 h at 4° C. Dehydration was carried out in graded ethanol followed by embedding in Glycid ether. Thin sections were mounted on Formvar/Carbon coated grids, stained with uranyl acetate and lead citrate and examined in Jeol 1400-Plus transmission electron microscope (Jeol, Japan). Images were captured using SIS Megaview III and iTEM the Tem imaging platform (Olympus).SEM: Samples for SEM were fixed with 2.5% glutaraldehyde (24 h, at […]), followed by a graded incubation series in ethanol-water solutions (50-100% (v/v)). […]

[2] = Rheological shear thinning measurements of native and cross-linked ECM hydrogel; type: physicochemical; settings: 37° C.
Description: Rheological Properties: Rheological measurements were taken using Discovery HR-3 hybrid Rheometer (TA Instruments, DE) with 20 mm diameter parallel plate geometry with a Peltier plate to maintain the sample temperature. The samples were loaded at a temperature of 4° C., which was then raised to 37° C. to induce gelation; during which the oscillatory moduli of samples were monitored at a fixed frequency of 1 Hz and a strain of 1%.
The mechanical properties of an exemplary native ECM-based hydrogel (derived from omentum) and of cross-linked hydrogels were assessed by rheological measurements. Shear thinning measurements were conducted at 37° C. Data are presented as mean±SD, n=3. P-values were calculated using a Comparison of Fits test with an Extra Sum of Squares F-test.

[3] = Compressive (bulk) modulus of hydrogel; type: physicochemical; settings: compression at 100 μm s^−1; n=3
Description: The compressive modulus measurements were performed using a Discovery HR-3 Hybrid Rheometer (TA Instruments, DE) with a 20 mm diameter parallel plate geometry and a Peltier plate to maintain the sample temperature. Bulk modulus tests were performed by compressing the samples at a fixed rate of 100 μm s^−1.
Alongside the rheological testing, the bulk mechanical properties of the hydrogel were also assessed. Samples were compressed, and the linear elastic modulus was calculated. Data are presented as mean±SD, n=3.

[4] = High-resolution imaging of hydrogel fiber morphology and pore size; type: physicochemical
Description: Data in FIG. 7I is presented as mean±SD, n=3, and each image had at least 180 pores whose area was determined using ImageJ.

| Compound | intracellular calcium levels [1] | change in gel viscosity ([2]; increasing SOx concentration to 0.07%) | change in gel viscosity ([2]; sample cross-linked with 0.03% SOx vs control gel) | hydrogel bulk (linear elastic) modulus with and without exposure to SOx [3] | internal fiber morphology of ECM hydrogel after reinforcement ([4]; before vs after exposure to SOx) | pore size (holes in the mesh) before and after crosslinking ([4]; n=3, at least 180 pores per image) |
| --- | --- | --- | --- | --- | --- | --- |
| Nc1ncnc2c1ncn2[C@@H]1O[C@H](COP(=O)(O)OP(=O)(O)OP(=O)(O)O)[C@@H](O)[C@H]1O [ATP, adenosine triphosphate] | immediately increased intracellular calcium levels in a significant manner | – | – | – | – | – |
| Oxidized sucrose [SOx] | – | smaller increase | large increase | significant reinforcement | without altering the internal morphology | no difference was observed |
